For series [1] the following is noted: reference markers for permeability categories; cited from earlier work.
Series [2] addresses T1, human recombinant cathepsin K (Homo sapiens, UniProt P43235).
T1 construct: made in house; host or cells: not fixed: E coli, Pichia or Baculovirus systems named as options
T1 sequence (P43235 115-329): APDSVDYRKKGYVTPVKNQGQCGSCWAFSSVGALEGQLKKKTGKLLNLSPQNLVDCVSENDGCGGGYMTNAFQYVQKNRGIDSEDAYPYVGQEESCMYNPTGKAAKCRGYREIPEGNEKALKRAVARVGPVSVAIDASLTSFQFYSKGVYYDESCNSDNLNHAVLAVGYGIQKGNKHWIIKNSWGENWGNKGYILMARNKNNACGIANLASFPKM
Description: Determination of cathepsin K proteolytic catalytic activity (Ki). The series is classed as biochemical. To be noted: fluorogenic substrate H-D-Ala-Leu-Lys-AMC; read-out: Ki Cat. K. The procedure: Convenient assays for cathepsin K are carried out using human recombinant enzyme, such as that described in PDB. • ID BC016058 standard; mRNA; HUM; 1699 BP. • DE Homo sapiens cathepsin K (pycnodysostosis), mRNA (cDNA clone MGC:23107 • RX MEDLINE;. RX PUBMED; 12477932. • DR RZPD; IRALp962G1234. • DR SWISS-PROT; P43235;
The recombinant cathepsin K can be expressed in a variety of commercially available expression systems including E coli, Pichia and Baculovirus systems. The purified enzyme is activated by removal of the prosequence by conventional methods.
Standard assay conditions for the determination of kinetic constants used a fluorogenic peptide substrate, typically H-D-Ala-Leu-Lys-AMC, and were determined in either 100 mM Mes/Tris, pH 7.0 containing 1 mM EDTA and 10 mM 2-mercaptoethanol or 100 mMNa phosphate, imM EDTA, 0.1% PEG4000 pH 6.5 or 100 mM Na acetate, pH 5.5 containing 5 mM EDTA and 20 mM cysteine, in each case optionally with […] as stabiliser. The enzyme concentration used was 5 nM. The stock substrate solution was prepared at 10 mM in DMSO. Screens were carried out at a fixed substrate concentration of 60 μM and detailed kinetic studies with doubling dilutions of substrate from 250 μM. The total DMSO concentration in the assay was kept below 3%. All assays were conducted at ambient temperature. Product fluorescence (excitation at 390 nm, emission at 460 nm) was monitored with a Labsystems Fluoroskan Ascent fluorescent plate reader. Product progress curves were generated over 15 minutes following generation of AMC product.
(§1) Potential inhibitors are screened using the above assay with variable concentrations of test compound. Reactions were initiated by addition of enzyme to buffered solutions of substrate and inhibitor. Ki values were calculated according to equation 1.
(§2) [formula] where v0 is the velocity of the reaction, V is the maximal velocity, S is the concentration of substrate with Michaelis constant of KM, and I is the concentration of inhibitor.

The target in a further series is human cathepsin L (Homo sapiens, UniProt P07711). Description: Cathepsin L Ki. The series is classed as biochemical. To be noted: H-D-Val-Leu-Lys-AMC substrate, pH5.5; read-out: Ki Cat. L. The procedure:
The procedure above with the following amendments is used for the determination of Ki for cathepsin L.
The enzyme is commercially available human cathepsin L (for example Calbiochem). The substrate is H-D-Val-Leu-Lys-AMC available from Bahcem. The assay buffer is 100 mM sodium acetate 1 mM EDTA, pH5.5) The DMSO stock (10 mM in 100% DMSO) is diluted to 10% in assay buffer. Enzyme is prepared at 5 nM concentration in assay buffer plus 1 mM dithiothreitol just before use. 2 μL of 10 mM inhibitor made up in 100% DMSO is dispensed into row A. 10 μL of 50 μM substrate (=1/200 dilution of 10 mM stock in DMSO, diluted in assay buffer).
as §1, §2

In the next series the target is T2, human cathepsin S (Homo sapiens, UniProt P25774).
T2 construct: made in house; host or cells: baculovirus expression system
Description: Cathepsin S Ki determination. The class given is biochemical. The conditions noted are these: baculovirus-expressed enzyme, boc-Val-Leu-Lys-AMC substrate, pH 6.5; read-out: Ki Cat. S. As for the experimental part: The assay uses baculovirus-expressed human cathepsin S and the boc-Val-Leu-Lys-AMC fluorescent substrate available from Bachem in a 384 well plate format, in which 7 test compounds can be tested in parallel with a positive control comprising a known cathepsin S inhibitor comparator.
280 μL/well of 12.5% DMSO are added to rows B-H of two columns of a 96 deep well polypropylene plate. 70 μL/well of substrate is added to row A. 2×250 μL/well of assay buffer (100 mM Na phosphate, 100 mM NaCl, pH 6.5) is added to row A, mixed, and double diluted down the plate to row H.
100 μL/well of assay buffer is added to columns 2-5 and 7-12 of 4 rows of a 96 well V bottom polypropylene plate. 200 μL/well of assay buffer is added to columns 1 and 6.
2 μl of each 10 mM test compound is added to a separate well on row A, columns 1-10. Add 90 μl assay buffer containing 1 mM DTT and 2 nM cathepsin S to each well of rows B-H and 180 μl to row A. Mix row A using a multichannel pipette and double dilute to row G. Mix row H and read in the fluorescent spectrophotometer. The readings are Prism data fitted to the competitive inhibition equation, setting S=100 μM and KM=100 μM to obtain an estimate of the up to a maximum of 100 μM.
The second test compound is added to column 6 of the top row, the third to column 1 of the second row etc. Add 1 μL of comparator to column 6 of the bottom row. Mix column 1 and double dilute to column 5. Mix column 6 and double dilute to column 10.
Using an 8-channel multistepping pipette set to 5×10 μL, distribute 10 μL/well of substrate to the 384 well assay plate. Distribute the first column of the substrate dilution plate to all columns of the assay plate starting at row A. The tip spacing of the multichannel pipette will correctly skip alternate rows. Distribute the second column to all columns starting at row B.
Using a 12-channel multistepping pipette set to 4×10 μL, distribute 10 μL/well of inhibitor to the 384 well assay plate. Distribute the first row of the inhibitor dilution plate to alternate rows of the assay plate starting at A1. The tip spacing of the multichannel pipette will correctly skip alternate columns. Similarly, distribute the second, third and fourth rows to alternate rows and columns starting at A2, B1 and B2 respectively.
Mix 20 mL assay buffer and 20 μL 1M DTT. Add sufficient cathepsin S to give 2 nM final concentration.
Using the a distributor such as a Multidrop 384, add 30 μL/well to all wells of the assay plate and read in fluorescent spectrophotometer such as an Ascent.
Fluorescent readings, (excitation and emission wavelengths 390 nm and 460 nm respectively, set using bandpass filters) reflecting the extent of enzyme cleavage of the fluorescent substrate, […] the inhibitor, are linear rate fitted for each well.
Fitted rates for all wells for each inhibitor are fitted to the competitive inhibition equation using SigmaPlot 2000 to determine V, Km and Ki values.
as §1, §2

As usually defined, the Ki is a dissociation constant, usually derived from enzyme kinetics or from competition with a known ligand.

human cathepsin L, sequence (P07711 114-333): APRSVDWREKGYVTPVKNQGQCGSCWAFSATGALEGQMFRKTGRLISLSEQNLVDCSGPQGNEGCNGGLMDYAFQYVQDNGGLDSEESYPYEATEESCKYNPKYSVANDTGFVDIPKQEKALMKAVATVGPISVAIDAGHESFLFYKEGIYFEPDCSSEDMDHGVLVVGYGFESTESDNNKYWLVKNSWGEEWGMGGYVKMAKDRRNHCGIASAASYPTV
T2 sequence (P25774 115-331): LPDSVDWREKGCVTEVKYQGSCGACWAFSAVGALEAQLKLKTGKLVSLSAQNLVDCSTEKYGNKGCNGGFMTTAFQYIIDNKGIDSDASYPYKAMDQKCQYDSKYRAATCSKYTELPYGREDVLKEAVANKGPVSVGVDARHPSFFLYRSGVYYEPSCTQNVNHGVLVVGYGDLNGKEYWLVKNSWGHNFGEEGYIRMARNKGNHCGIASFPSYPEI

In the case of `CN(Cc1cnc2nc(N)nc(N)c2n1)c1ccc(C(=O)N[C@@H](CCC(=O)O)C(=O)O)cc1` [Methotrexate], in series [1], the “absorption in man (%)” value is given as 20%.

As to `N[C@@H](Cc1ccccc1)C(=O)O` [L-Phenylalanine], in series [1], the “absorption in man (%)” value is 100%.

Turning to `OC[C@@H](O)[C@@H](O)[C@H](O)[C@H](O)CO` [Mannitol], the “absorption in man (%)” value in series [1] is 16%.

Turning to `CC(C)OC(=O)N[C@@H](CC1(F)CCCC1)C(=O)NC1(C(=O)C(N)=O)CCC1` [Example C14], the figures for the Ki (in series [2]; on human cathepsin L; at human cathepsin S) were 640 nM, 2800 nM and 2.1 nM, respectively.
